These results are taken from ChEMBL document CHEMBL5649166, “RIP3 induces apoptosis independent of pronecrotic kinase activity” (Mol Cell, 2014).

The target of assay [1] is T1, Inhibitor of nuclear factor kappa-B kinase subunit epsilon (Homo sapiens) (UniProt Q14164).
T1 sequence (whole entry): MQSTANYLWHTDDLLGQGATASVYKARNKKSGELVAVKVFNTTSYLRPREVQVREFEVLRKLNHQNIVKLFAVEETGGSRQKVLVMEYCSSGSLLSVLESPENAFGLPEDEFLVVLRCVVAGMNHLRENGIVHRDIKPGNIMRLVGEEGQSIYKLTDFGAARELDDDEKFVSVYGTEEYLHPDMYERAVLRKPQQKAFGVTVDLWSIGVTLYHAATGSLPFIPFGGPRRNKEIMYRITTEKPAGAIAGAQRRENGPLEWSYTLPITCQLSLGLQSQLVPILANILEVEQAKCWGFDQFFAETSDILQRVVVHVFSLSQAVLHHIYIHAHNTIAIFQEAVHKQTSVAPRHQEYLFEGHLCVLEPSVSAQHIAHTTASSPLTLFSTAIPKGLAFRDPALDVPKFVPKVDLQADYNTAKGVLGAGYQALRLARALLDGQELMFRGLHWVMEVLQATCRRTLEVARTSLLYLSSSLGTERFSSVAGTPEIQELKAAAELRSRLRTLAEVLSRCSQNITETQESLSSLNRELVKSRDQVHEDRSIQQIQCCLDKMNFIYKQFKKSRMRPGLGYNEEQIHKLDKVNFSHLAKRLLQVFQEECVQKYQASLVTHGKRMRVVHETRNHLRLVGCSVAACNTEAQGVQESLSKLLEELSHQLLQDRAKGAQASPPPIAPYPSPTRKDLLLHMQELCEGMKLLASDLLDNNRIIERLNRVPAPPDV
Description: Inhibition of human IKKe/IKBKE using casein as substrate at 1 uM in presence of 32P-ATP by Hotspot assay relative to control; values are per cent of control.

For assay [2], the target named is Mitogen-activated protein kinase kinase kinase 9 (Homo sapiens) (UniProt P80192). As to the kind of experiment: Inhibition of human MLK1/MAP3K9 using casein as substrate at 1 uM in presence of 32P-ATP by Hotspot assay relative to control; values are per cent of control.
Assay [3] has as its target Protein kinase C gamma type (Homo sapiens) (UniProt P05129). Description: Inhibition of human PKCg using ERMRPRKRQGSVRRRV as substrate at 1 uM in presence of 32P-ATP by Hotspot assay relative to control; values are per cent of control.
The target of assay [4] is T2, 3-phosphoinositide-dependent protein kinase 1 (Homo sapiens) (UniProt O15530).
T2 sequence (whole entry): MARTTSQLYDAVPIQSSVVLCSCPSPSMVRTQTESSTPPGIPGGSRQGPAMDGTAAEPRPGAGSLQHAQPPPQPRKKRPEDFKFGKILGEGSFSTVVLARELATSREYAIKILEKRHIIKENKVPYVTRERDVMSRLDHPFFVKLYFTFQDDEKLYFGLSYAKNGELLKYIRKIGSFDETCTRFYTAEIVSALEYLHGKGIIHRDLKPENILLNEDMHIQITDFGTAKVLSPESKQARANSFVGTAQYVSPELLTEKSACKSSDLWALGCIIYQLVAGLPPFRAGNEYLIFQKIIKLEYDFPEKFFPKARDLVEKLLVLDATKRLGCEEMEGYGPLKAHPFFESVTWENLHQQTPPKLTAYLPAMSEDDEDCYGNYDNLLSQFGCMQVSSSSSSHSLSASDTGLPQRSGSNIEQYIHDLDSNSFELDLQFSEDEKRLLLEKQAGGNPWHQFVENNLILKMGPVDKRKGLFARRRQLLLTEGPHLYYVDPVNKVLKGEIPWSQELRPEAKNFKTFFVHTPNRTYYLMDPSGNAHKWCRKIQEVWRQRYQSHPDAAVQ
As to the kind of experiment: Inhibition of human PDK1/PDPK1 using KTFCGTPEYLAPEVRREPRILSEEEQEMFRDFDYIADWC as substrate at 1 uM in presence of 32P-ATP by Hotspot assay relative to control; values are per cent of control.

In assay [5] the target is MAP kinase-activated protein kinase 2 (Homo sapiens) (UniProt P49137). Description: Inhibition of human MAPKAPK2 using KKLNRTLSVA as substrate at 1 uM in presence of 32P-ATP by Hotspot assay relative to control; values are per cent of control.
The target in assay [6] is T3, cAMP-dependent protein kinase catalytic subunit PRKX (Homo sapiens) (UniProt P51817).
T3 sequence (whole entry): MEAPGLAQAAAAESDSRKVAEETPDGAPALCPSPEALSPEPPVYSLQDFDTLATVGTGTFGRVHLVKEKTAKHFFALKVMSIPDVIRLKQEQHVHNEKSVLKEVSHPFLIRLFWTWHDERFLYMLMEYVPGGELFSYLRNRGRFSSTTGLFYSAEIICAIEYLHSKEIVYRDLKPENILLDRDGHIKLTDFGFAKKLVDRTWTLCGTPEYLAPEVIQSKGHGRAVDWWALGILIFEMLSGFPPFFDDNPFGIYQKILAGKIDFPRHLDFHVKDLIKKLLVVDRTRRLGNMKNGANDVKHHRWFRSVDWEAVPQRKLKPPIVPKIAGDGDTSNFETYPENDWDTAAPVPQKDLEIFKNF
Description: Inhibition of human PRKX using LRRASLG as substrate at 1 uM in presence of 32P-ATP by Hotspot assay relative to control; values are per cent of control.

Assay [7] has as its target Protein kinase C theta type (Homo sapiens) (UniProt Q04759). Description: Residual activity of human PKCtheta using ERMRPRKRQGSVRRRV as substrate at 1 uM in presence of 32P-ATP by Hotspot assay relative to control.
For assay [8], the target named is Serine/threonine-protein kinase MARK1 (Homo sapiens) (UniProt Q9P0L2). As to the kind of experiment: Inhibition of human MARK1 using KKKVSRSGLYRSPSMPENLNRPR as substrate at 1 uM in presence of 32P-ATP by Hotspot assay relative to control; values are per cent of control.
For assay [9], the target named is Serine/threonine-protein kinase pim-3 (Homo sapiens) (UniProt Q86V86). As to the kind of experiment: Inhibition of human PIM3 using RSRHSSYPAGT as substrate at 1 uM in presence of 32P-ATP by Hotspot assay relative to control; values are per cent of control.

Serine/threonine-protein kinase MARK1 (Homo sapiens), sequence (Q9P0L2 whole entry, looked up): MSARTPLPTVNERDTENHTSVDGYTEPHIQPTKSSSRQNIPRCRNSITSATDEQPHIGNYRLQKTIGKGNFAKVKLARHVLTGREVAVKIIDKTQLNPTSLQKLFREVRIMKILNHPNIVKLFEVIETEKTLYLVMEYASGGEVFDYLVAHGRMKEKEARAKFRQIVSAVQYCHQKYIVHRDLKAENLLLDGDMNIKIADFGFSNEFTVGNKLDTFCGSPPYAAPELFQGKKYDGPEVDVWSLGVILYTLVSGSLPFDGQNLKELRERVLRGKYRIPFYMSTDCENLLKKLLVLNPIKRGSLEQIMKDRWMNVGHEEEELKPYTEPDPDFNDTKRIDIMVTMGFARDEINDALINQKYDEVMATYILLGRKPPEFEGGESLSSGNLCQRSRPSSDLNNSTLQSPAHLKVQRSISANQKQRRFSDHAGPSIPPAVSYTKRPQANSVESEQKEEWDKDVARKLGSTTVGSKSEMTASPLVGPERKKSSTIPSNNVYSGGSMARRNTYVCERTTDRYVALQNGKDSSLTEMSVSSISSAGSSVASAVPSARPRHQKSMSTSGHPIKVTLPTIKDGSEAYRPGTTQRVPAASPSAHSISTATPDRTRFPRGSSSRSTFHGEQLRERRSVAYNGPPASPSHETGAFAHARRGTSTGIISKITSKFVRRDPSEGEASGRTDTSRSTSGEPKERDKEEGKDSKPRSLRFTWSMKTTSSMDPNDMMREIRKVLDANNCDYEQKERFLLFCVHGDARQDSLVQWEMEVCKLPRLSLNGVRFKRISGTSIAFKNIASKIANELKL
Mitogen-activated protein kinase kinase kinase 9 (Homo sapiens), sequence (P80192 whole entry, looked up): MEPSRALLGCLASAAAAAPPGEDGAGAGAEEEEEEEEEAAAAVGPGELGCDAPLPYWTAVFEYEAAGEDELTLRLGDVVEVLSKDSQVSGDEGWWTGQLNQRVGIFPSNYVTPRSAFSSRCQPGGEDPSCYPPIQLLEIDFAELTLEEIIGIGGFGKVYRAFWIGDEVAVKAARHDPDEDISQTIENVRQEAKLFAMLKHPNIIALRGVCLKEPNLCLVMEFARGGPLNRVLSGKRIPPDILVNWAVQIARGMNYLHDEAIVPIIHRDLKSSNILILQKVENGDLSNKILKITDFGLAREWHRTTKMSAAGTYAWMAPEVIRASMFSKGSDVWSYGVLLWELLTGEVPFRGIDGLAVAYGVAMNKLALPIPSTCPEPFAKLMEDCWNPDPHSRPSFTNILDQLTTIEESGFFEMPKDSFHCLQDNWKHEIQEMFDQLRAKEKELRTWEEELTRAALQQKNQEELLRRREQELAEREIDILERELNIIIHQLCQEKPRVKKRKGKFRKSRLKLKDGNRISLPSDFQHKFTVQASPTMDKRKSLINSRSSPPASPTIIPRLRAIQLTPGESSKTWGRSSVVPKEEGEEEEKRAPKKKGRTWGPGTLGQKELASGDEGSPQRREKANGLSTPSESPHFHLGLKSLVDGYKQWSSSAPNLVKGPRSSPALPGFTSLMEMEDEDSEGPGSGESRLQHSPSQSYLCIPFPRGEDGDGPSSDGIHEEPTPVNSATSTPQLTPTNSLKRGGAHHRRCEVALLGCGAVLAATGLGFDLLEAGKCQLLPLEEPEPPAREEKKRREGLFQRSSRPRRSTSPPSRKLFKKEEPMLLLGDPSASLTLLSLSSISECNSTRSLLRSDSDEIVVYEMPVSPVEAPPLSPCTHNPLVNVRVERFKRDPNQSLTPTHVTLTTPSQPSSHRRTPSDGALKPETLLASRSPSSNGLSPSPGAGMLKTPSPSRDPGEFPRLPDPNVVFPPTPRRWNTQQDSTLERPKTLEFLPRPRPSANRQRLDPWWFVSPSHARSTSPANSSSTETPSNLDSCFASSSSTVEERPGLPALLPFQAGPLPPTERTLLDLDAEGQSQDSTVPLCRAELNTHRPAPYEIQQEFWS
Protein kinase C theta type (Homo sapiens), sequence (Q04759 whole entry, looked up): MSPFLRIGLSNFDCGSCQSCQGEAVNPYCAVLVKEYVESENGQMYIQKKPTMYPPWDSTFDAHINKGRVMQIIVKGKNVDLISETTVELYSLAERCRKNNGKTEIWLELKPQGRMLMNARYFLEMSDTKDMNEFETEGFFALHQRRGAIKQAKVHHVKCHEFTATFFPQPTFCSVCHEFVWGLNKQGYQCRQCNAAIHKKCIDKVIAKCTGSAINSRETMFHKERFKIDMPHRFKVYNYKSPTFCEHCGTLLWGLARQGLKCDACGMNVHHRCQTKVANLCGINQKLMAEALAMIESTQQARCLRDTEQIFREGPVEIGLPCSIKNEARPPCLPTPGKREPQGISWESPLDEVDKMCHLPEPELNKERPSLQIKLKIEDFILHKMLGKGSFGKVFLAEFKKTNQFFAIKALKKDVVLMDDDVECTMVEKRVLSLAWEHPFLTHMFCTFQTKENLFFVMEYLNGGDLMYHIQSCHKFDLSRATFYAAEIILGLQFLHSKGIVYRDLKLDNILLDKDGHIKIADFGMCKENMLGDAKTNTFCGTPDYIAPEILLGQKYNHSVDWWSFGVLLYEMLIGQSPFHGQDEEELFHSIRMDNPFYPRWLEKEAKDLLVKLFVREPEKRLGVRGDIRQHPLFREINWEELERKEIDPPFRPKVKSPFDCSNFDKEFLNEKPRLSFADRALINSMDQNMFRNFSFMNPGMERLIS
MAP kinase-activated protein kinase 2 (Homo sapiens), sequence (P49137 whole entry, looked up): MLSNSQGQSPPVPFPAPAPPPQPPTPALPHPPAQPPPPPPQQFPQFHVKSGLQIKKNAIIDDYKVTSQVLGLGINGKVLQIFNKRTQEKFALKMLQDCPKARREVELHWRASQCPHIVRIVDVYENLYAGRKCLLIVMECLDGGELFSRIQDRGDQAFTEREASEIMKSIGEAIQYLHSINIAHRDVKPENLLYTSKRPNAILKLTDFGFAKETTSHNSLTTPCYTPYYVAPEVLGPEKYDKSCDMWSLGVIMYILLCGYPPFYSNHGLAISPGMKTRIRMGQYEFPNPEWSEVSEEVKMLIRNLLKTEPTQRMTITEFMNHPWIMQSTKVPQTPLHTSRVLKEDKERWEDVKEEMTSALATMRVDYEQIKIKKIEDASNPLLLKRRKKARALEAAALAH

As to `CNC(=O)c1ccc2c(c1)ncn2-c1ccc(CC(=O)OC(C)(C)C)cc1`, the residual activity in assay [1] worked out at 100%; in assay [2], 90.7%; in assay [3], 85.7%; in assay [4], 100%; in assay [5] it was 100%; in assay [6], 93.6%. Besides, the figures for the residual activity in assay [7], in [8] and in assay [9] were 104%, 96.2% and 99.9%, respectively.
Take `Cc1cc(-c2cnc(N)c3c(-c4ccc5scnc5c4)csc23)n(C)n1`: the residual activity in assay [1] was 97.9%; in [2], 102%; in assay [3], 86.6%; in [4], 101%; in assay [5] it was 89.1%; in assay [6], 94.2%. Besides, the figures for the residual activity in assay [7], in assay [8] and in assay [9] were 98.3%, 103% and 99.5%, respectively.
On to `CC(C)S(=O)(=O)c1ccc2nccc(Nc3ccc4scnc4c3)c2c1`, for which the residual activity in assay [1] is 97.7%; in assay [2], 97%; in assay [3], 99.4%; in assay [4], 98.6%; in assay [5] it was 103%; in assay [6], 101%. Also, the residual activity was 92.8% in assay [7], 96.3% in assay [8] and 94.2% in assay [9].
